# Results published in patent US6696578B2, “Difuropyrone derivatives” (Mount Sinai Hospital, priority 1999, dated 2004).
# Key:
# [1] = Solubility of CM-1 in various solvents; type: physicochemical
# [2] = Rehydrolysis of purified CM-1 with 6N HCl, UV absorption; type: physicochemical; settings: purified CM-1, 6N HCl, 110° C., 48 hrs
# Description: An aliquot of purified CM-1 was lyophilized. The lyophilized CM-1 was resuspended in 7 ml of 50% HPLC grade methanol. The UV absorption of CM-1 was measured at 306 nm using a Shimatzu Spectrophotometer. The methanol was evaporated and CM-1 was rehydrolysed for 48 hrs in 6N HCl at 110° C. CM-1 was then lyophilized and resuspended in 7 ml of 50% HPLC grade methanol. The UV absorption of CM-1 was measured.
# [3] = Rehydrolysis of purified CM-1 calibrator with 6N HCl for different time points; type: physicochemical; settings: 110° C.
# Description: 100 μl of CM-1 calibrator was lyophilized, resuspended in 3.0 ml of 50% methanol and UV absorbance was measured. Five aliquots of 500 μl each were rehydrolyzed with 1000 μl 6N HCl at 110° C. for 3, 6, 12, 24 and 48 hrs. The rehydrolyzed CM-1 was lyophilized and resuspended in 500 μl of 50% methanol and UV absorbance was measured. Methanol was then evaporated and the samples were resuspended in 500 μl of the mobile phase and injected into the HPLC analytical column. The results of rehydrolysis of CM-1 were compared to the unhydrolyzed CM-1 calibrator.
# [4] = Storage of CM-1 calibrator at room temperature or in freezer, UV absorbance; type: physicochemical; settings: calibrator in 50% methanol, eight months; for UV absorbance at 306 nm after storage: reference calibrator 0.69 AU
# Description: The UV absorbance of CM-1 calibrator (30 ug/ml of 50% methanol) was measured. An aliquot of CM-1 calibrator was kept on the bench top for […], and another aliquot was kept in a storage box in a −70° C. freezer for an equal length of time. The UV absorbance of CM-1 calibrator aliquot was measured after eight months of respective storage procedure.
# [5] = tested on: SM and MD cartilage cultures (calf metaphalangeal joint chondrocytes); assay: Bovine cartilage cultures treated with interleukin-1β; type: cell-based; settings: 10 ng/ml for 7 days prior to harvesting
# Description: Articular cartilage was excised separately from the superficial-middle (SM) or middle-deep (MD) layers of calf metaphalangeal joint using a sterile technique as described by Boyle et al. The cartilage slices were placed in a petri dish containing Ham's F12 and 1% antibiotics in HAT. Chondrocytes were isolated from the SM and MD extracellular matrix by sequential enzymatic digestion using proteinase (0.5%, 1 hour, 37° C.), washed three times with Ham's F12 medium and finally digested with collagenase A (0.1%, overnight, 37° C.). Teflon filter inserts (Millicell CMR, Millipore Corp., Bedford, Mass., USA) were placed into the wells of the 24 well culture dish, coated with type II collagen (0.5 mg/ml of 0.1N acetic acid), dried overnight and UV sterilized for 30 mins. The filter inserts were washed thoroughly with Ham's F12 before plating the cells. The isolated SM and MD chondrocytes were washed extensively and resuspended in Ham's F12 with 5% fetal bovine serum (FBS) and plated on the teflon inserts at a density of 3.0×10^6/cm^2. The cells were supplemented with the medium containing 20% FBS and 100 μg/ml ascorbic acid (added fresh at all times) from day 7 onwards every alternate working day. Some cartilage filter cultures were treated with 10 ng/ml interleukin-1β (Il-1β, human recombinant, Sigma) for 7 days (three changes of the Ham's F12 with 20% FBS and Il-1β) prior to harvesting. The chondrocytes were grown at 37° C., 100% humidity and 5% CO2. The chondrocyte cultures were harvested at fixed time points i.e. day 21, 35, and 56 and stored at −20° C. till the analysis day.
# The untreated (controls) and Il-1β-treated SM and MD cartilage cultures were analyzed for cartilage thickness and collagen, proteoglycan, pyridinoline, deoxypyridinoline, and CM-1 content as described herein.
solubility ([1]; chloroform),solubility ([1]; hexane),solubility ([1]; methanol),solubility ([1]; water),decrease of UV absorption at 276 nm after rehydrolysis [2] [%],decrease of UV absorption at 306 nm after rehydrolysis [2] [%],UV absorption at 276 nm after rehydrolysis ([2]; before treatment 1.00 (278 nm)) [AU],UV absorption at 306 nm after rehydrolysis ([2]; before treatment 1.884) [AU],CM-1 yield after rehydrolysis (unhydrolyzed calibrator = 100%) ([3]; 3 hrs (maintained up to 12 hrs)) [%],CM-1 yield after rehydrolysis (unhydrolyzed calibrator = 100%) ([3]; 24 hrs) [%],CM-1 yield after rehydrolysis (unhydrolyzed calibrator = 100%) ([3]; 48 hrs) [%],stability when rehydrolyzed with 6N HCl ([3]; prolonged period),decrease of UV absorbance at 306 nm after storage ([4]; room temperature) [%],UV absorbance at 306 nm after storage ([4]; room temperature) [AU],UV absorbance at 306 nm after storage ([4]; −70° C. freezer) [AU],Substance,glycosaminoglycan (GAG) content ([5]; SM and DM groups),"collagen content ([5]; SM and DM groups, in particular day 56)",cartilage thickness versus untreated controls ([5]; SM and MD groups),Pyd and Dpyd content ([5]; day 35 and more so day 56)
insoluble,insoluble,highly soluble,highly soluble,51,75,0.4865,0.469,64,19,4.5,not stable,75,0.1718,0.73,"2,6-dimethyl-difuro-8-pyrone [CM-1]",–,–,–,–
–,–,–,–,–,–,–,–,–,–,–,–,–,–,–,"Il-1β: interleukin-1β, human recombinant, Sigma; used to treat cartilage filter cultures",decreased,decreased,thinner,decrease
